Here are results for two compounds from publication PMC11345829, “Discovery of Potent Isoquinolinequinone N-Oxides to Overcome Cancer Multidrug Resistance” (Journal of Medicinal Chemistry, 2024).

The subject of data set [1] is NCI-H460, NCI-H460/R, DLD1 and DLD1-TxR spheroids. As to the kind of experiment: Spheroid morphology (AnaSP image analysis). The data set is classed as cell-based, human. Conditions: 48 h; GI50 and 2 × GI50. As for the experimental part: Spheroid formation was conducted in 12-series agarose 3D Petri Dish micromolds (MicroTissues Technology, MicroTissues Inc., Sigma-Aldrich). The agarose micromolds were prepared using 1% agarose in a 0.9% NaCl solution and then placed in 12-well plates and equilibrated with RPMI supplemented with 10% FBS for at least 2 h before cell seeding. Cell suspensions corresponding to 500 cells per spheroid of the NSCLC cell lines (NCI-H460 and NCI-H460/R), and 1000 cells per spheroid of the colorectal cancer cell lines (DLD1 and DLD1-TxR) were seeded in the corresponding micromolds. The choice of cell seeding concentration was based on a previous optimization assay (data not shown), ensuring that at the end of the assay the spheroids would have a size of around 400 μm. A 20 min incubation period was used for cells to settle into the micromolds and additional medium was finally added to the wells. Spheroid formation was monitored with the Leica DMi1 microscope. […] At the end of the treatment, images from at least 8 different spheroids per condition were captured on the Leica Dmi1 microscope, and posteriorly analyzed with the automated open-source software AnaSP.[82] Spheroid parameters, such as equivalent diameter, circularity, and compactness, were calculated.
S3.6 Effect of 25 on spheroids from NSCLC and colorectal cancer (Figure S67) […]
2GI50 concentrations previously determined in a 2D setting. […]

The target of data set [2] is T1, P-gp mediated drug efflux in NCI-H460/R cells (Homo sapiens, UniProt P08183).
T1 construct: these cells overexpress the MDR1 gene which encodes for P-gp; endogenous in cells; host or cells: NCI-H460/R (doxorubicin-selected MDR human NSCLC cells)
T1 sequence (P08183 whole entry): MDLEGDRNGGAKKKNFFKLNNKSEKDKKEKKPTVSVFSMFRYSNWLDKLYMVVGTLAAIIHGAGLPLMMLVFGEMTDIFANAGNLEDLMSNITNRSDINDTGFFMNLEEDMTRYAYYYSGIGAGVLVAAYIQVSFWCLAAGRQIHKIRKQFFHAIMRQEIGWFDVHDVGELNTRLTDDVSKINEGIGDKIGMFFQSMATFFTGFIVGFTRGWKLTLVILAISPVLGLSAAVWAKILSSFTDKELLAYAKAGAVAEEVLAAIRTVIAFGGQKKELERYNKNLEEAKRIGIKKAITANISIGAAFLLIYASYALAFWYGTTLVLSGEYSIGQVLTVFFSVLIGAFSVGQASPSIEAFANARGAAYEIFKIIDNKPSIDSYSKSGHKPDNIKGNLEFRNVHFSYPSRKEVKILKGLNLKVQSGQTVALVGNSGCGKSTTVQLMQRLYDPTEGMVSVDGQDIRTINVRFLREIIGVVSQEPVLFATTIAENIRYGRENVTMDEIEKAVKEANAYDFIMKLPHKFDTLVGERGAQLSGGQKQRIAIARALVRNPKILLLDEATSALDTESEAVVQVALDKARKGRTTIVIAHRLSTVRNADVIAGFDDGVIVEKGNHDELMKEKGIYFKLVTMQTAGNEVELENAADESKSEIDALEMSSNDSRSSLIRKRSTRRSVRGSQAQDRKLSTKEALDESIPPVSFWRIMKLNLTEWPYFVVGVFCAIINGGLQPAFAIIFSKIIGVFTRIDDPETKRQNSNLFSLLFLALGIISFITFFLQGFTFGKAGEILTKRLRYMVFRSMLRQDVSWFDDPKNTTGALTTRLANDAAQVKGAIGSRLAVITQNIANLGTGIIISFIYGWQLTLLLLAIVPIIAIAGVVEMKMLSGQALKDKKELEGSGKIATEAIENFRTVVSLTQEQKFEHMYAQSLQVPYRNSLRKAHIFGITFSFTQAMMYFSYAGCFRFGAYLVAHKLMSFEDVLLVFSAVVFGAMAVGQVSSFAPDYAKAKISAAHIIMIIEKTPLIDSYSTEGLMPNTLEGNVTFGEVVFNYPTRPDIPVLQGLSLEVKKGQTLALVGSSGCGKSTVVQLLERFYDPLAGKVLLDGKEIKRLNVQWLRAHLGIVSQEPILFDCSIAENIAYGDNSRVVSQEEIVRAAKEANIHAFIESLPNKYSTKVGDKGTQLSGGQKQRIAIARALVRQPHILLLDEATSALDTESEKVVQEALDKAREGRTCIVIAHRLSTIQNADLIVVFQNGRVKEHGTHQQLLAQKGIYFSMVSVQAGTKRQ
The data set can be described thus: Rhodamine-123 accumulation (drug efflux) assay. The class given is cell-based. Conditions: 1 h, 10 or 20 μM. As for the experimental part:
Figure 11 Relative rhodamine-123 accumulation in NCI-H460 or in NCI-H460/R cells following treatment with compound 25, evaluated by flow cytometry (rhodamine-123 efflux assay). Cells were incubated for 1 h with medium, DMSO (vehicle at the % used in the highest tested concentration of 25), verapamil (positive control), or compound 25 at two different concentrations (10 and 20 μM). Verapamil (20 μM) was used as a positive control (P-gp inhibitor). Results are the mean ± SEM of at least 3 independent experiments. * p ≤ 0.05, when comparing vehicle (DMSO) vs compound treatment in NCI-H460/R cells.
The NSCLC cells (1.5 × 10^5 cells/mL) were incubated for 1 h at 37 °C in the presence of 10 μM or 20 μM of compound 25 and with 1 μM of rhodamine-123 (Sigma-Aldrich). NCI-H460 cells without treatment were used as a negative control and NCI-H460/R cells treated with verapamil (a known P-gp inhibitor) at concentrations of 10 and 20 μM were used as a positive controls.[80],[81] After the incubation time, cells were washed in cold PBS and kept at 4 °C, protected from light until analysis in the flow cytometer. At least 10 000 cells per sample were acquired and analyzed on the BD Accuri C6 flow cytometer.

In data set [3] the test system is NCI-H460 cells. The data set can be described thus: ROS accumulation, CM-H2DCFDA flow cytometry. The class given is cell-based, human. Conditions: 6 h; 0.7, 1 and 5 μM; concentration dependent. The source says: To uncover the mechanisms of action of 25, we analyzed the cellular accumulation of ROS by flow cytometry, using a fluorescent marker of ROS, 5-(and-6)-chloromethyl-2′,7′-dichlorodihydrofluorescein diacetate acetyl ester (CM-H2DCFDA). […] Importantly, this effect was concentration dependent.
Figure 6 Effect of the compound 25 on ROS accumulation in NCI-H460 cells. […] Results are presented as mean fluorescence values, normalized to the blank. Data are expressed as mean ± SEM from at least 3 independent experiments.
To study the effect of compound 25 on ROS levels, 5-(and-6)-chloromethyl-2′,7′-dichlorodihydrofluorescein diacetate, acetyl ester (CM-H2DCFDA; Invitrogen) analysis by flow cytometry was performed in the drug-sensitive cells. NCI-H460 cells (1.5 × 10^5/mL) were plated in 6-well plates for 24 h. […] Harvested cells were subsequently washed twice in phosphate-buffered saline (PBS) and the CM-H2DCFDA fluorescence was analyzed in a BD AccuriTM flow cytometer (BD Biosciences, San Jose, California, USA). Mean fluorescence intensity was calculated after correction for autofluorescence.
Background: In flow cytometry, cells or beads pass a laser one at a time.

Another data set has as its system MRC-5. As to the kind of experiment: SRB cytotoxicity assay, nontumorigenic lung fibroblasts. The class given is cell-based, human. Conditions: 48 h. On the procedure:
Selectivity over nontumorigenic cells is a key requirement in cancer therapy so the cytotoxicity of 25 against nontumorigenic lung fibroblast (MRC-5) and breast cell lines (MCF12A) was evaluated with the SRB assay.
Figure 5 Cytotoxic effect of compound 25 on the nontumorigenic MRC-5 cell line (fibroblasts isolated from the lung tissue), analyzed by the SRB assay. Concentration−response curves of MRC-5 cells exposed to compound 25 for 48 h. Results are presented as percentage (%) of cell growth compared to control cells (vehicle, DMSO). For comparison purposes, the GI50 concentration of compound 25 in the NCI-H460 cell line is represented by the vertical dotted line. Results are the mean ± SEM from at least three independent experiments.
Cells were seeded at a previously determined optimal cell concentration (5.0 × 10^4 cells/mL for NSCLC cells and the nontumorigenic MRC-5 cell line and 1.0 × 10^5 cells/mL for colorectal cancer cells) and incubated at 37 °C for 24 h. […] The SRB assay was performed as previously described.[78],[79] […] Absorbance was measured at 510 nm in a multiplate reader (Synergy Mx, Biotek Instruments Inc., Winooski, Vermont, USA) using the Gen5 software (Biotek Instruments Inc.).

Data set [4] concerns NCI-H460 cells. Also on record: method as in PMID 34915071. Particulars: cited from earlier work.

On to `COC(=O)c1c2c(c[n+]([O-])c1C)C(=O)C=C(NCc1ccccc1)C2=O` [Compound 25], for which the “spheroid morphological properties (diameter, compactness, circularity)” value in data set [1] was “did not display statistical differences in the AnaSP-calculated morphological properties”. The rhodamine-123 accumulation result in data set [2] is listed as “caused rhodamine accumulation within the cells, in a similar extent to the positive control verapamil”. In addition, in the data set on NCI-H460 cells [3], the “ROS accumulation (fluorescence intensity)” value was “statistically significant increase on fluorescence intensity”. Also, the 50% growth inhibitory concentration (GI50) in the data set with MRC-5 (Homo sapiens, MRC5, SRB, nontumorigenic lung fibroblasts, ±0.075 SEM) amounted to 1530 nM. In the data set on MRC-5 (below 0.5 μM), the “effect on MRC-5 growth at low concentrations” value is listed as “does not reduce the growth of this cell line”.

As to `COc1cccc2c1C(=O)c1c(O)c3c(c(O)c1C2=O)C[C@@](O)(C(=O)CO)C[C@@H]3O[C@H]1C[C@H](N)[C@H](O)[C@H](C)O1` [doxorubicin, reference compound], the “concentration reducing viability of NCI-H460 cells in 2D models” value in the data set with NCI-H460 cells [4] is 0.1 µM.

As a reminder, the GI50 is the concentration that inhibits growth by half.
